Laboratory results as given in US8426408B2, “Pyrimidine inhibitors of kinases” (AbbVie Inc., priority 2009, dated 2013).

Assays:
[1] = molecular target: KDR (Homo sapiens, UniProt P35968); assay: KDR cellular assay (KDR receptor phosphorylation ELISA); type: cell-based; design: expressed in transfected cells; host or cells: 3T3 (embryonic mouse) cells; details: KDR transfected 3T3 (embryonic mouse) cells, VEGF stimulated; read-out: IC50 inhibition of KDR phosphorylation
Summary of the method: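 Phospho-KDR measured by capture ELISA (anti-KDR coat, biotinylated detection, streptavidin-HRP, 450 nm) in lysates of KDR-expressing 3T3 mouse fibroblasts. Cells saw compound 20 min at 37° C before 10 min VEGF challenge (100 ng/ml solution); IC50 from non-linear regression of half-log dose series.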

[2] = system: NCI-H1299 cells; assay: Induction of polyploidy in H1299; type: cell-based, Human; details: NCI-H1299, 48 hours; for EC15: Homo sapiens, read-out: EC15 (concentration of inhibitor necessary to induce polyploidy in 15% of cells)
Method: To determine the induction of polyploidy in H1299 cells, NCI-H1299 were seeded (4K/well) into 96-well culture plates (tissue culture grade, black, flat-clear bottom) and incubated overnight to produce cell-to-plate adherence. Inhibitors at varying concentrations were added into duplicate wells containing cells and culture media (RPMI 1640, 10% fetal calf serum) and incubated at 37 C for 48 hours. The plates were then washed with PBS and the adherent cells fixed by incubating with 3% formalin for 1 hour. After washing four times with PBS, the cells were then stained with Hoechst and subjected to fluorescent (360 i/460e) microscopic high content analysis to determine the effect of inhibitors on nuclear size. Polyploid cells (≧4N) were defined as those having nuclear area>750μ^2. Potency was expressed as the concentration of inhibitor necessary to induce polyploidy in 15% of cells (EC15) and was calculated from least squares analysis of the log dose-response.

KDR, sequence (P35968 20-1356): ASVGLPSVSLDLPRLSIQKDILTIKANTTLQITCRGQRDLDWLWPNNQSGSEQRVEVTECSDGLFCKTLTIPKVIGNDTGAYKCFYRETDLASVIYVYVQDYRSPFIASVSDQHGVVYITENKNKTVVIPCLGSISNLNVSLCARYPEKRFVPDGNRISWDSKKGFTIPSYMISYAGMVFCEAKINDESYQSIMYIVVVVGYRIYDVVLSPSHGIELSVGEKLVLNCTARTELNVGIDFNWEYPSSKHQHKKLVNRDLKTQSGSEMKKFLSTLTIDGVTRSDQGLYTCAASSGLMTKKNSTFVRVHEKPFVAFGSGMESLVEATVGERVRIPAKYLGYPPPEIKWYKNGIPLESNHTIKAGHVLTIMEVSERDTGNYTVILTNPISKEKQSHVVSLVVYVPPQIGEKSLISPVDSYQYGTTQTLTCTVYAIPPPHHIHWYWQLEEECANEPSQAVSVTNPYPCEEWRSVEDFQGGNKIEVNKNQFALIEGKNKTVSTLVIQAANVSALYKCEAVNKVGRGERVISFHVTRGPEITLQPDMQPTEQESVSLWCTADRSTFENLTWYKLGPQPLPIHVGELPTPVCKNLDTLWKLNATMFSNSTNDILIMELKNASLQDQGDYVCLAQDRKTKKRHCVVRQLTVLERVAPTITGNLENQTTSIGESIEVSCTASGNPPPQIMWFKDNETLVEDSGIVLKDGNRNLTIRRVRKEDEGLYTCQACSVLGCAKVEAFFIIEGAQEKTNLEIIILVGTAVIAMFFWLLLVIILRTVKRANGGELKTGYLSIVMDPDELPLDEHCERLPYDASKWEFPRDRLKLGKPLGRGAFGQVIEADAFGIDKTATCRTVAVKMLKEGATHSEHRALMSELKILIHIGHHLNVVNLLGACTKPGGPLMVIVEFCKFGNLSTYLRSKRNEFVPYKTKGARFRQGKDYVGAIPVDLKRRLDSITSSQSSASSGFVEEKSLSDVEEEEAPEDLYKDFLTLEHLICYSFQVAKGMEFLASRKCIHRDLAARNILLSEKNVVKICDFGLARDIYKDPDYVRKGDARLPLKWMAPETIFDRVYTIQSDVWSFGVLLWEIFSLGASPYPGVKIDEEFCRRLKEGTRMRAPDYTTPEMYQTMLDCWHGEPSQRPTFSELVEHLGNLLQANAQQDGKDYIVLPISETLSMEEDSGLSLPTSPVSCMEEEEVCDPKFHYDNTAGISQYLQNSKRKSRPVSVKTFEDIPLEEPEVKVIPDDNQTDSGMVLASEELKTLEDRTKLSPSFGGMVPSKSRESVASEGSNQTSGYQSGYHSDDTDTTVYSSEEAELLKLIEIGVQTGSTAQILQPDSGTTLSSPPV

IC50 [1]	SMILES	EC15 [2]	EC15 (concentration of inhibitor necessary to induce polyploidy in 15% of cells) [2]
< 100 nM	NC(=O)[C@@H]1[C@H](Nc2nc(Nc3cnn(Cc4cccc(Cl)c4)c3)ncc2Cl)[C@H]2C=C[C@@H]1C2 [Example 157, (1S,2S,3R,4R)-3-[(5-chloro-2-{[1-(3-chlorobenzyl)-1H-pyrazol-4-yl]amino}pyrimidin-4-yl)amino]bicyclo[2.2.1]hept-5-ene-2-carboxamide]	< 100 nM	–
< 100 nM	Cc1c(Nc2ncc(Cl)c(N[C@H]3[C@@H](C(N)=O)[C@@H]4C=C[C@H]3C4)n2)cnn1C [Example 169, (1S,2S,3R,4R)-3-({5-chloro-2-[(1,5-dimethyl-1H-pyrazol-4-yl)amino]pyrimidin-4-yl}amino)bicyclo[2.2.1]hept-5-ene-2-carboxamide]	< 100 nM	–
< 100 nM	NC(=O)[C@@H]1[C@H](Nc2nc(Nc3cnn(Cc4ccc(Cl)cc4)c3)ncc2Br)[C@H]2C=C[C@@H]1C2 [Example 172, (1S,2S,3R,4R)-3-[(5-bromo-2-{[1-(4-chlorobenzyl)-1H-pyrazol-4-yl]amino}pyrimidin-4-yl)amino]bicyclo[2.2.1]hept-5-ene-2-carboxamide]	< 100 nM	–
100 to 1000 nM	CC(O)Cn1cc(Nc2ncc(C(F)(F)F)c(NC3C4CCC(C4)C3C(N)=O)n2)cn1 (mixture of isomers) [Example 21, (1S,2R,3S,4R)-3-{[2-({1-[(2R)-2-hydroxypropyl]-1H-pyrazol-4-yl}amino)-5-(trifluoromethyl)pyrimidin-4-yl]amino}bicyclo[2.2.1]heptane-2-carboxamide and (1R,2S,3R,4S)-3-{[2-({1-[(2R)-2-hydroxypropyl]-1H-pyrazol-4-yl}amino)-5-(trifluoromethyl)pyrimidin-4-yl]amino}bicyclo[2.2.1]heptane-2-carboxamide]	–	A (“A” represents an EC15 of less than 0.1 μM)
100 to 1000 nM	Cn1cc(Nc2ncc(Cl)c(Nc3ccccc3C3(O)CCC3)n2)cn1 [Example 101, 1-[2-({5-chloro-2-[(1-methyl-1H-pyrazol-4-yl)amino]pyrimidin-4-yl}amino)phenyl]cyclobutanol]	< 100 nM	–
< 100 nM	NC(=O)[C@@H]1[C@H](Nc2nc(Nc3cnn(CCc4ccccc4)c3)ncc2Br)[C@H]2C=C[C@@H]1C2 [Example 148, (1S,2S,3R,4R)-3-[(5-bromo-2-{[1-(2-phenylethyl)-1H-pyrazol-4-yl]amino}pyrimidin-4-yl)amino]bicyclo[2.2.1]hept-5-ene-2-carboxamide]	< 100 nM	–
< 100 nM	CN(C)CC(=O)N1CCC(n2cc(Nc3ncc(Cl)c(N[C@H]4[C@@H](C(N)=O)[C@@H]5C=C[C@H]4C5)n3)cn2)CC1 [Example 89, (1S,2S,3R,4R)-3-{[5-chloro-2-({1-[1-(N,N-dimethylglycyl)piperidin-4-yl]-1H-pyrazol-4-yl}amino)pyrimidin-4-yl]amino}bicyclo[2.2.1]hept-5-ene-2-carboxamide]	< 100 nM	–

The next lines start with the compound.

SMILES	IC50 [1]	EC15 [2]	EC15 (concentration of inhibitor necessary to induce polyploidy in 15% of cells) [2]
CN1CCC(Cn2cc(Nc3ncc(Cl)c(N[C@H]4[C@@H](C(N)=O)[C@@H]5C=C[C@H]4C5)n3)cn2)CC1 [Example 97, (1S,2S,3R,4R)-3-{[5-chloro-2-({1-[(1-methylpiperidin-4-yl)methyl]-1H-pyrazol-4-yl}amino)pyrimidin-4-yl]amino}bicyclo[2.2.1]hept-5-ene-2-carboxamide]	< 100 nM	100 to 1000 nM	–
Cn1cc(Nc2ncc(Cl)c(N[C@@H]3[C@H](C(N)=O)[C@H]4CC[C@@H]3O4)n2)cn1.Cn1cc(Nc2ncc(Cl)c(N[C@H]3[C@@H](C(N)=O)[C@@H]4CC[C@H]3O4)n2)cn1 (mixture of isomers) [Example 141, (1S,2R,3S,4R)-3-({5-chloro-2-[(1-methyl-1H-pyrazol-4-yl)amino]pyrimidin-4-yl}amino)-7-oxabicyclo[2.2.1]heptane-2-carboxamide and (1R,2S,3R,4S)-3-({5-chloro-2-[(1-methyl-1H-pyrazol-4-yl)amino]pyrimidin-4-yl}amino)-7-oxabicyclo[2.2.1]heptane-2-carboxamide]	100 to 1000 nM	–	B (“B” represents an EC15 of between 0.1 μM and 1 μM)
CCn1cc(Nc2ncc(Cl)c(N[C@H]3[C@@H](C(N)=O)[C@@H]4C=C[C@H]3C4)n2)cn1 (racemic) [Example 30, (1S,2S,3R,4R)-3-({5-chloro-2-[(1-ethyl-1H-pyrazol-4-yl)amino]pyrimidin-4-yl}amino)bicyclo[2.2.1]hept-5-ene-2-carboxamide and (1R,2R,3S,4S)-3-({5-chloro-2-[(1-ethyl-1H-pyrazol-4-yl)amino]pyrimidin-4-yl}amino)bicyclo[2.2.1]hept-5-ene-2-carboxamide]	< 100 nM	–	A (“A” represents an EC15 of less than 0.1 μM)
NC(=O)[C@@H]1[C@H](Nc2nc(Nc3cnn([C@H]4CCOC4)c3)ncc2Br)[C@H]2C=C[C@@H]1C2 [Example 117, (1S,2S,3R,4R)-3-{[5-bromo-2-({1-[(3S)-tetrahydrofuran-3-yl]-1H-pyrazol-4-yl}amino)pyrimidin-4-yl]amino}bicyclo[2.2.1]hept-5-ene-2-carboxamide]	< 100 nM	< 100 nM	–
NC(=O)[C@@H]1CCC[C@@H]1Nc1nc(Nc2cnn(C3CCNCC3)c2)ncc1Cl.NC(=O)[C@H]1CCC[C@H]1Nc1nc(Nc2cnn(C3CCNCC3)c2)ncc1Cl (mixture of isomers) [Example 136, (1S,2R)-2-[(5-chloro-2-{[1-(piperidin-4-yl)-1H-pyrazol-4-yl]amino}pyrimidin-4-yl)amino]cyclopentanecarboxamide and (1R,2S)-2-[(5-chloro-2-{[1-(piperidin-4-yl)-1H-pyrazol-4-yl]amino}pyrimidin-4-yl)amino]cyclopentanecarboxamide]	100 to 1000 nM	–	A (“A” represents an EC15 of less than 0.1 μM)
CCn1cc(Nc2ncc(Cl)c(N[C@@H]3[C@H](C(N)=O)[C@@H]4C=C[C@H]3C4)n2)cn1.CCn1cc(Nc2ncc(Cl)c(N[C@H]3[C@@H](C(N)=O)[C@H]4C=C[C@@H]3C4)n2)cn1 (mixture of isomers) [Example 121, (1S,2R,3S,4R)-3-({5-chloro-2-[(1-ethyl-1H-pyrazol-4-yl)amino]pyrimidin-4-yl}amino)bicyclo[2.2.1]hept-5-ene-2-carboxamide and (1R,2S,3R,4S)-3-({5-chloro-2-[(1-ethyl-1H-pyrazol-4-yl)amino]pyrimidin-4-yl}amino)bicyclo[2.2.1]hept-5-ene-2-carboxamide]	100 to 1000 nM	–	A (“A” represents an EC15 of less than 0.1 μM)
COc1cccc(CCn2cc(Nc3ncc(Cl)c(N[C@H]4[C@@H](C(N)=O)[C@@H]5C=C[C@H]4C5)n3)cn2)c1 [Example 154, (1S,2S,3R,4R)-3-{[5-chloro-2-({1-[2-(3-methoxyphenyl)ethyl]-1H-pyrazol-4-yl}amino)pyrimidin-4-yl]amino}bicyclo[2.2.1]hept-5-ene-2-carboxamide]	100 to 1000 nM	< 100 nM	–
Cn1cc(Nc2ncc(Cl)c(N[C@@H]3[C@@H]4CC[C@@H](C4)[C@@H]3C(N)=O)n2)cn1.Cn1cc(Nc2ncc(Cl)c(N[C@H]3[C@H]4CC[C@H](C4)[C@H]3C(N)=O)n2)cn1 (mixture of isomers) [Example 113, (1R,2R,3S,4S)-3-({5-chloro-2-[(1-methyl-1H-pyrazol-4-yl)amino]pyrimidin-4-yl}amino)bicyclo[2.2.1]heptane-2-carboxamide and (1S,2S,3R,4R)-3-({5-chloro-2-[(1-methyl-1H-pyrazol-4-yl)amino]pyrimidin-4-yl}amino)bicyclo[2.2.1]heptane-2-carboxamide]	100 to 1000 nM	–	A (“A” represents an EC15 of less than 0.1 μM)
CS(=O)(=O)CCn1cc(Nc2ncc(Cl)c(N[C@H]3[C@@H](C(N)=O)[C@@H]4C=C[C@H]3C4)n2)cn1 [Example 119, (1S,2S,3R,4R)-3-{[5-chloro-2-({1-[2-(methylsulfonyl)ethyl]-1H-pyrazol-4-yl}amino)pyrimidin-4-yl]amino}bicyclo[2.2.1]hept-5-ene-2-carboxamide]	100 to 1000 nM	< 100 nM	–
C[C@@H](O)Cn1cc(Nc2ncc(Cl)c(N[C@@H]3[C@H]4CC[C@H](C4)[C@@H]3C(N)=O)n2)cn1 [Example 104, (1R,2S,3R,4S)-3-{[5-chloro-2-({1-[(2R)-2-hydroxypropyl]-1H-pyrazol-4-yl}amino)pyrimidin-4-yl]amino}bicyclo[2.2.1]heptane-2-carboxamide]	100 to 1000 nM	< 100 nM	–
Cn1cc(Nc2ncc(Cl)c(N[C@@H]3CC[C@@H]3C(N)=O)n2)cn1.Cn1cc(Nc2ncc(Cl)c(N[C@H]3CC[C@H]3C(N)=O)n2)cn1 (mixture of isomers) [Example 151, (1S,2R)-2-({5-chloro-2-[(1-methyl-1H-pyrazol-4-yl)amino]pyrimidin-4-yl}amino)cyclobutanecarboxamide and (1R,2S)-2-({5-chloro-2-[(1-methyl-1H-pyrazol-4-yl)amino]pyrimidin-4-yl}amino)cyclobutanecarboxamide]	100 to 1000 nM	–	A (“A” represents an EC15 of less than 0.1 μM)
